{
  "source": "patent US20160138057A1",
  "about": "“Methods for enhancing alpha-ketoglutarata production in Yarrowia lipolytica” (priority 2014, published 2016)",
  "key": {"[1]": {"tested_on": "recombinant Y. lipolytica (Y. lipolytica-GDH2)", "assay": "Intracellular glutamate content of recombinant strain fermented with L-methionine imide", "assay_type": "cell-based, Yarrowia lipolytica", "description": "Determination of GDH catalytic activity and intracellular amino acid content: cells were collected by centrifugation in the exponential growth phase and washed by 0.9% saline, then suspended by 10 mL buffer (0.1 M KH2PO4-K2HPO4, 1 mM EDTA, 0.01 mM DTT, pH 7.5). Pickling glass beads was added for grinding for 5 min at 4° C., and then centrifuged at 13000×g for 10 min. The supernatant was used for the determination of catalytic activity of GDH and the intracellular amino acid content.\nIntracellular glutamate and glutamine was determinated by the following steps: 200 μl cell disruption supernatant and 800 μL 5% trichloroacetic acid was sequentially added to an 1 mL EP tube and standed for 5 min. 1 mL sample was filtered by 0.22 μm aqueous filter head and then centrifuged at 10000 rpm for 10 min. The amino acid content of the treated sample was measured by HPLC.\nThe HPLC conditions were as follows: pre-column derivatization of sample was carried out by […] (OPA) and 9-Fluorenylmethyl Chloroformate. […]\nThe wild type Y. lipolytica WSH-Z06 and the recombinant strain Y. lipolytica-GDH2 were incubated in 500 mL flasks with 50 mL fermentation medium at 28° C., 200 rpm for 96 hours at the same time. […] The glutamate contents were quantified by the methods described above."}, "[2]": {"tested_on": "recombinant Y. lipolytica (Y. lipolytica-GDH2)", "assay": "Extracellular α-KG accumulation of recombinant strain fermented with L-methionine imide", "assay_type": "cell-based, Yarrowia lipolytica", "description": "Fermentation medium: 36.1 mg·L^−1 L-methionine imine, 100 g·L^−1 glycerol, 3 g·L^−1 (NH4)2SO4, 3 g·L^−1 KH2PO4, 1.2 g·L^−1 MgSO4·7H2O, 0.5 g·L^−1 NaCl, 0.1 g·L^−1 K2HPO4, 2×10^−7 g·L^−1 thiamine hydrochloride, pH 4.5, and then sterilized at 115° C. for 15 min. CaCO3 sterilized at 121° C. for 30 min was added to 20 g·L^−1 before inoculation.\nExtracellular α-KG was quantified by HPLC. Appropriate supernatant of fermentation broth centrifuged at 13000×g was diluted 50-fold with ultrapure water and filtrated by 0.22 μm filter for HPLC analysis. The column was Aminex HPX-87H ion exchange column and 5 mmol·L^−1 sulfuric acid solution (550 μL concentrated sulfuric acid volumed to 2 L) filtrated by 0.22 μm filter and degassed was used as mobile phase. The velocity of flow was 0.6 mL·min^−1 with a column temperature at 35° C. and a injection volume of 10 μL. The wavelength of UV detector was 210 nm.\nα-KG was produced as the method described above. The wild type Y. lipolytica WSH-Z06 and the recombinant strain Y. lipolytica-GDH2 were incubated in 500 mL flasks with 50 mL fermentation medium containing L-methionine imide at 28° C., 200 rpm for 144 hours at the same time to accumulate α-KG extracellular."}},
  "data": [
    {"smiles": "CSCC[C@H](N)C(N)=O", "note": "[L-methionine imide]", "values": [
      {"measurement": "content of glutamate intracellular", "setting": "[1]; 0.2 mM L-methionine imide added during fermentation of the recombinant strain", "result": "0.99 μmol per mg dry cells weight (DCW)"},
      {"measurement": "increase of intracellular glutamate content", "setting": "[1]; 0.2 mM L-methionine imide, recombinant strain, versus wild type strain", "result": 86.3, "unit": "%"},
      {"measurement": "increase of extracellular α-KG accumulation", "setting": "[2]; 0.2 mM L-methionine imide, versus wild type strain", "result": 32.4, "unit": "%"},
      {"measurement": "accumulation of α-KG extracellular", "setting": "[2]; fermentation medium containing L-methionine imide (0.2 mM), 28° C., 200 rpm, 144 hours", "result": 19.2, "unit": "g/L"}
    ]}
  ]
}
